Assay: gradient 5% acetonitrile 3 min, to 50% in 2 min, to 85% in 15 min, held 3 min, 100 µL/min
Conditions: column: Zorbax Extend-C18 2.1 x 50 mm; eluents: water / acetonitrile, 0.1% formic acid
How it was run: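 The system's dead and dwell volumes were 40 μL and 900 μL, with a Zorbax Extend-C18 column (2.1 × 50 mm, 1.8 μm) run at 100 μL/min in water and acetonitrile containing 0.1% formic acid each. Pure standards were analyzed in mixtures of ~100 molecules by HPLC–quadrupole time-of-flight mass spectrometry in positive and negative ionization mode. Retention time was assigned from computationally picked, manually inspected adduct peaks.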

Row | SMILES | RP-LC retention time [s]
1 | O=C(c1ccc(F)cc1F)N1CCN(c2ccc3nncn3n2)CC1 | 601
2 | Cc1ccnc(SCC(=O)Nc2nc(-c3ccccc3)c(-c3ccccc3)o2)n1 | 959
3 | CCc1ccccc1N1C(=O)CN(S(C)(=O)=O)CC1(C)C(=O)NCc1ccccc1 (centres undefined) | 804
4 | CCn1cc(-c2ccccc2)cc1C(=O)NCC(C)C | 1070
5 | CCCN(CC1CCOC1)C(=O)Nc1ccc(Cl)cc1F (centres undefined) | 853
6 | Cc1nc2ccn(Cc3ccco3)c(=O)c2cc1C(=O)NCc1ccco1 | 718
7 | Fc1ccc(CN2CC(F)(F)C[C@H]2COc2cccnc2)c(Cl)c1 | 870
8 | Cc1cc(C)cc(NC(=O)C2CCN(C(=O)C3Sc4ccccc4NC3=O)CC2)c1 (centres undefined) | 818
9 | O=C(NCC1CC1)C1CC(=O)N(c2ccc3c(c2)CCN3C(=O)C2CCC2)C1 (centres undefined) | 719
10 | O=C(NC1CC1)c1ccc(-c2nc3cccnc3n(C3CCCC3)c2=O)cc1 | 970
11 | O=C(COc1ccccc1)N1CCN(c2nc(CN3CCOCC3)cs2)CC1 | 615
12 | O=C(CN1C(=O)COc2ccc(C(=O)N3CCCC3)cc21)N1CCN(c2ccccc2)CC1 | 718
13 | CCNc1cc(N2CCCC(CCC(=O)NCCN3CCCCCC3)C2)ncn1 (centres undefined) | 550
14 | CCOC(=O)c1cccc(Nc2c(-c3ccc(Cl)cc3)nc3cnccn23)c1 | 992
15 | O=C(NCC(O)C1CCCCC1)C(c1ccccc1)c1ccccc1 (centres undefined) | 907
16 | Cc1ccc2c(c1)N(S(C)(=O)=O)CCC(C(=O)Nc1ccccc1C)O2 (centres undefined) | 894
17 | CCS(=O)(=O)N1CCCN(C2=NS(=O)(=O)C(c3ccccc3)=C2C)CC1 | 751
18 | CCn1cc(-c2nc(CC(=O)Nc3ccc(Cl)cc3F)cs2)c2cccnc21 | 1100
19 | O=C(CN1C(=O)NC(c2ccccc2Cl)C2=C1COC2=O)NCc1ccccc1Cl (centres undefined) | 801
20 | CCn1cc(CN2CCC(C(=O)NC3CCCCCC3)CC2)c2cc(Cl)ccc21 | 777
21 | Cc1cccc(CNC(=O)c2cc(C(C)C)n3nccc3n2)c1 | 1310
22 | O=C(CCc1c(-c2ccccc2)nc2ccccn12)NC1CCCCCC1 | 666
23 | O=C(c1csc(-c2ccc(N3CCCC3)nc2)n1)N1CCCCC1 | 613

Row | SMILES | RP-LC retention time [s]
24 | Cc1nn(-c2ccc(Cl)cc2)c(C)c1S(=O)(=O)N1CCC(C(=O)NC2CC2)CC1 | 835
25 | Cc1ccc(N2C(=O)CN(S(C)(=O)=O)CC2(C)C(=O)NCc2ccc(F)cc2)c(C)c1 (centres undefined) | 834
26 | Cc1cnc(C2CCC2)n1CCNC(=O)c1nccn1C | 556
27 | O=C(NC1CCCCCC1)c1cn(-c2cc(-c3nc(C4CC4)no3)ccn2)cn1 | 1040
28 | O=C(N[C@H]1C[C@@H]2C[C@H]1N(C(=O)Cc1cccs1)C2)c1ccccc1 | 746
29 | Cc1ccc(NS(=O)(=O)c2cc3n(c2)CCN(C(C)C)C3=O)cc1 | 777
30 | Cn1cccc1C(=O)N1CCN(c2cc(-c3ccccc3)[nH]n2)CC1 | 747
31 | Cc1cc(=O)n(CC(=O)NCCC2=CCCCC2)c(N2CCCCC2)n1 | 734
32 | CCC(CC)C(=O)Nc1nc(-c2ccc3c(c2)N(C)C(=O)CO3)c(C)s1 | 962
33 | COc1ccccc1CC(=O)N1CCN(c2ncnc3c2CCC3)CC1 | 621
34 | O=C(Cn1cnc2nc(N3CCC(C(=O)NC4CC4)CC3)sc2c1=O)Nc1ccc2c(c1)OCO2 | 637
35 | CCn1cc(-c2ccc(OC)cc2)cc1C(=O)N1CCC(C)CC1 | 1110
36 | O=C(c1ccoc1)N1CCCC1c1nc(C2CCOCC2)no1 (centres undefined) | 670
37 | O=C(c1ccc2c(c1)OCO2)N1C[C@H]2C[C@H](C1)[C@H]1CCCC(=O)N1C2 | 637
38 | Cc1ccc2ncn(C3CCN(C(=O)Nc4cc(Cl)ccc4C)CC3)c(=O)c2c1 | 911
39 | Cc1ccc(-c2[nH]c3[nH]c(=O)[nH]c(=O)c3c2C2C(=O)N(C)c3ccccc32)cc1 (centres undefined) | 696
40 | Cc1cccc(N2CCN(S(=O)(=O)c3ccc(-c4nnc(C5CCC5)o4)o3)CC2)c1 | 1140
41 | COc1ccc(F)cc1S(=O)(=O)N1CCc2nn(C)c(=O)n2CC1 | 673
42 | Cc1csc(-c2cc(S(=O)(=O)N3CCC(Cc4ccccc4)CC3)c(C)n2C)n1 | 1300
43 | CCn1c(=O)sc2cc(S(=O)(=O)N3CCC(C(=O)Nc4cccc(C)c4)CC3)ccc21 | 962
44 | COc1ccc(C(=O)N2CCC3(CC2)NC(=O)c2cc(C)ccc2N3C)c(OC)c1 | 754
45 | O=C(O)c1ccc2c(c1)n(Cc1cccc(F)c1)c(=O)c1ccnn12 | 784
46 | O=C(NCC1(N2CCOCC2)CCOC1)Nc1cc(F)ccc1F (centres undefined) | 592

Row | SMILES | RP-LC retention time [s]
47 | O=C(NC1CC1)[C@@H]1C[C@H](Oc2ccccc2)CN1C(=O)c1ccsc1 | 733
48 | CCCc1cc(N2CCN(c3ccccn3)CC2)n2ncc(-c3ccccc3)c2n1 | 886
49 | COc1ccc(OC)c(NC(=O)C2CCCN(S(=O)(=O)c3cc(-c4noc(C)n4)cs3)C2)c1 (centres undefined) | 966
50 | O=C(NCc1cccc(C(F)(F)F)c1)C1CCN(c2cc(N3CCOCC3)ncn2)CC1 | 672
51 | Nc1ccc2c(c1)S(=O)(=O)c1cc(N)ccc1-2 | 635
52 | O=C(NCC1CCN(C(=O)Oc2ccccc2)CC1)Nc1ccccc1Cl | 881
53 | CC(=O)c1ccc(NS(=O)(=O)N2CCC(C)CC2)cc1 | 780
54 | CC(C)n1c(C2CCN(C(=O)Nc3ccc(Cl)cc3F)C2)nc2ccncc21 (centres undefined) | 567
55 | CCOC(=O)c1ccc(NC(=O)Cn2cnc3nc(-c4cccnc4)ncc3c2=O)cc1 | 686
56 | O=S(=O)(c1ccc(F)cc1)N1CCN(c2cnn3cnnc3c2)CC1 | 653
57 | CCOc1ccc(-c2noc(Cn3c(=O)n(Cc4ccccc4)c(=O)c4sccc43)n2)cc1OC | 1110
58 | Cc1ccccc1CN1CCCN(c2ncccc2-c2nc(C(C)C)no2)CC1 | 725
59 | CCOc1cc(C(=O)Nc2cc(-c3cn4cccnc4n3)ccc2OC)cc(OCC)c1OCC | 831
60 | O=c1ccc(-c2nc(-c3ccc(F)cc3)no2)nn1Cc1ccccc1F | 1070
61 | COC(=O)c1ccc(C(=O)NCCCC(=O)Nc2cccc3cccnc23)cc1 | 731
62 | CCC(=O)N1CCN(c2nc3c(s2)CC(C(=O)O)CC3)CC1 (centres undefined) | 578
63 | CC1(C)CC(=O)c2cn(-c3ccccc3)c(=O)c(C(=O)NC3CCCC3)c2C1 | 932
64 | COc1ccc(-c2ncccc2CNS(=O)(=O)c2ccc(C#N)cc2)cc1 | 673
65 | O=C(NC1CC1)c1ccc(N2CCC(NCc3ccc(Br)cc3)C2)nc1 (centres undefined) | 572
66 | CC(C)c1cc(C2CCCN2C(=O)c2ccccc2)no1 (centres undefined) | 847
67 | CC(=O)N1CCc2cc(CNS(=O)(=O)c3ccccc3)ccc21 | 691
68 | CCN1CCCn2cc(S(=O)(=O)NCc3ccc(F)cc3Cl)cc2C1=O | 771
69 | Cc1cccc(-c2[nH]ncc2CN)c1 | 561

Row | SMILES | RP-LC retention time [s]
70 | COC(=O)Cn1c(C2CC(=O)N(c3ccc(OC)cc3)C2)nc2ccccc21 (centres undefined) | 709
71 | CCc1cccc(NC(=O)C2CCCN(C(=O)C3Sc4ccccc4NC3=O)C2)c1 (centres undefined) | 818
72 | Cc1cc2c(c(=O)n(-c3ccccc3)c(=O)n2CC(=O)Nc2cccc(Br)c2)n1C | 836
73 | Cc1ccc(-c2nc3nc(C)cc(C)n3c2Nc2ccc3c(c2)OCCO3)cc1 | 704
74 | CSc1cccc(NC(=O)C2CCN(c3cnc4nc(C)c(C)nc4c3)CC2)c1 | 758
75 | Cc1nn(CCCC(=O)N2CCN(c3ccccn3)CC2)c(=O)c2noc(C)c12 | 580
76 | O=S(=O)(c1ccc(-c2nnc(C3CC3)o2)o1)N1CCN(c2ccc(F)cc2)CC1 | 981
77 | CCN1CCN(c2cc(-c3nc(-c4cccc(F)c4)no3)c3ccccc3n2)CC1 | 821
78 | Cc1nn(-c2cc(N3CCCCC3)ncn2)c(C)c1CCC(=O)NCc1ccccn1 | 646
79 | Cc1nc(CC(=O)Nc2nc(-c3ccccc3)c(C)s2)cs1 | 894
80 | COc1ccc2c(c1)C1(CCN(S(=O)(=O)c3ccc(Br)cc3)C1)C(=O)N2 (centres undefined) | 881
81 | Cc1nc(C)c(C(=O)NCc2ccc3c(c2)ncn3C(C)C)s1 | 568
82 | Cc1nc(-c2cc(S(=O)(=O)N3CCC(C(=O)Nc4cccc(C#N)c4)CC3)c(C)s2)no1 | 949
83 | Cc1cc(NC(=O)N2CCCC(Cn3cnc4cccnc43)C2)ccc1Br (centres undefined) | 784
84 | Cc1cccc(NC(=O)Nc2nccn(-c3ccc4c(c3)CCC4)c2=O)c1 | 1140
85 | Cc1ccc(S(=O)(=O)N(C)CC2CCOCC2)cc1Cl | 894
86 | O=C(CN1CCN(Cc2ccc(F)cc2)C1=O)NCCc1ccccn1 | 552
87 | O=C(Nc1ccnc2ccc(Cl)cc12)c1ccc(S(=O)(=O)NC2CC2)cc1 | 656
88 | CC(C)(C)c1cccc(NC(=O)C2CCc3nc(N4CCOCC4)ncc3C2)c1 (centres undefined) | 945
89 | O=S(=O)(c1cccc(-c2nnc(-c3ccc(F)cc3)o2)c1)N1CCCC1 | 991
